Data reported in patent US11124479B2, “Oligopyrroles as antagonists of islet amyloid polypeptide oligomerization” (New York University, priority 2017, dated 2021).

Legend:
[1] = test system: IAPP mediated cytotoxicity in Rat insulinoma cells (RIN-m); assay: Cell viability (CellTiter Blue), IAPP-mediated cytotoxicity; format: cell-based; conditions: 6 μM IAPP, 48 h, IAPP alone ~68%
Protocol: (§1) For cell toxicity assays, Rat insulinoma cells (RIN-m) were as they are considered to be a good model for pancreatic β-cells (see Huang, C.; Lin, C.; Haataja, L., Gurlo, T., Butler, A. E., Rizza, R. A., and Butler, P. C. Diabetes, 2007, 56, 2016-2027). Rat insulinoma RIN-m cells (ATCC, Manassas, Va.) were cultured in RPMI medium supplemented with 10% fetal bovine serum, 1% penicillin/streptomycin, […] sodium pyruvate, and […] β-mercaptoethanol (Life Technologies, Carlsbad, Calif.) at 37° C. and 5% CO2. Upon reaching ˜95% confluence, cells were washed with phosphate buffered saline (VWR, Radnor, Pa.), split using 0.25% Trypsin-EDTA (Life Technologies), and plated in clear 96-well plates (Corning, Glenview, Ill.) for cell viability assays.
(§2) Cell viability was measured using the CellTiter Blue (CTB, Promega, Madison, Wis.) fluorescence-based assay. Cells were plated at a density of 20,000 cells per well in 96 well plates. After 48 h of incubation at 37° C. and 5% CO2, cells were washed with 100 μL of PBS. […] Fluorescence of the dye was measured on a FlexStation3 microplate reader (Molecular Devices, Sunnyvale, Calif.). […] Percent viability was calculated as per the following equation: % Viability=100*[(<S>−<P>)/(<N>−<P>)]
(§3) Where <S>, <P>, and <N> are the average fluorescence intensities of the sample, positive control, and negative control, respectively.

RIN-m cells = assay: Cell viability (CellTiter Blue), compound alone without IAPP; format: cell-based, Rat; conditions: concentrations used for cell viability assays, no IAPP
Protocol: as §1, §2, §3

[2] = biological target: T1, islet amyloid polypeptide (IAPP) (Homo sapiens, UniProt P10997); assay: Circular dichroism (CD) spectroscopy of IAPP conformation; conditions: for IAPP conformation by CD: 15 μM IAPP, equimolar ratio
T1 construct: IAPP is a 37 residue neuropancreatic hormone peptide; purchased Anaspec (Fremont, Calif.)
T1 sequence (P10997 34-70 limits assumed): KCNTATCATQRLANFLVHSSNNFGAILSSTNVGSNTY
Protocol: A freshly prepared stock solution of IAPP (500 μM in water) was diluted to 15 μM in phosphate buffer for CD measurements. The spectra of IAPP were recorded at 0.5 nm intervals from 190 to 260 nm with an averaging time of 10 sec. and an average of three repeats on an Aviv Stopped Flow CD Spectropolarimeter (Model 202SF). Spectra were recorded using the identical method as described above. ADH-101 was added to the solution of IAPP at an equimolar ratio. […]

[3] = Self-aggregation by UV, centrifugation and DLS; format: physicochemical
Excerpt: ADH-101 contains hydrophobic and negatively charged groups and presents a possibility for self-aggregation. It has been shown that the small molecules with self-aggregation tendencies can inhibit amyloid formation in a non-specific manner. Therefore, UV, centrifugation, and DLS were used to explore the self-aggregation properties of ADH-101 (FIG. 12A).

Aβ42 = biological target: T2, Aβ42 (Homo sapiens, UniProt P05067); assay: ThT kinetic assay of Aβ42 fibrillation (specificity assay); format: biochemical
T2 construct: purchased
Protocol: Kinetic assays were conducted on a FlexStation 3 Multi-Mode Microplate reader from Molecular Devices (Sunnyvale, Calif.). Experiments were conducted in triplicate in a 96-well plate with a final volume of 200 μL per well. Every measurement was an average of 50 readings. The aggregation of IAPP was initiated by its addition from a stock solution (1 mM in DMSO) to phosphate buffer. The stoichiometry ratio for ThT to IAPP was 0.5:1. Peptide aggregation was monitored by ThT fluorescence (λex=445 nm and λem=485 nm). The blank sample contained all the components of the peptide samples except peptide. The sample data were processed by subtracting the blank and renormalizing the fluorescence intensity by setting the maximum value to 1.
Kinetic assays in the presence of the compounds of the invention were conducted under the same conditions. Small molecules were added from a stock solution (1 mM or 10 mM in DMSO) to keep the final concentration of DMSO less than 1.0% (v/v). Small molecules were added to the wells with ThT and buffer and mixed gently with a pipette before adding IAPP. To keep the conditions identical, an equal amount of DMSO was added to the wells with IAPP only reactions. For the aggregation kinetics of Aβ42, the peptide was dissolved in 1N NaOH (0.5-1 mM) and vortexed for 2 min. to ensure the complete solubility. The aggregation of 3 μM Aβ42 was initiated by addition of peptide from a stock solution (in 1 N NaOH, 0.5-1 mM) to phosphate buffer.
Kinetic profiles were processed using Origin (version 9.1). Kinetic curves were fit using the built-in sigmoidal fit. Each run was fit independently to extract the t50 (time required to reach 50% of the maximum fluorescence intensity). Error bars represent standard deviations from the mean of at least three independent experiments.
To test the specificity of ADH-101 towards IAPP, the binding interaction of ADH-101 with Aβ peptide was investigated. […]

T2 sequence (P05067 672-713 limits assumed): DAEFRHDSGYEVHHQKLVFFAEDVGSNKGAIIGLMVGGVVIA

- IAPP conformation by CD ([2]; phosphate buffer, after 8 hours): no β-sheet conformation was observed
- conformation induced in IAPP ([2]; FIG. 3B): induces an α-helical conformation
- induced CD signal around 340 nm ([2]; incubated with IAPP at equimolar ratio): positive induced CD signal
- IAPP conformation by CD ([2]; lipid membrane (600 μM DOPG:DOPC 3:7), after 1 hour): stays in an α-helical state
- diameter of species by DLS ([3]; 50 μM, 150 mM KCl, 50 mM NaPi, pH 7.4): less than 10 nm
- concentration up to which the compound did not self-assemble ([3]; phosphate buffer, UV and centrifugation): > 40 µM
- effect on Aβ42 fibrillation (in words) (Aβ42): weak agonist
- relative t50 for Aβ42 amyloid fiber formation (Aβ42; 3 μM Aβ42, equimolar ratio): 0.8 fold
- t50 for the amyloid kinetics of Aβ42 in the presence of compound (Aβ42; 3 μM Aβ42, equimolar ratio, Aβ42 alone 4.22±0.51 h): 3.41 ± 0.32 h
Structure (SMILES): CCOC(=O)c1cc(NC(=O)c2cc(NC(=O)c3cc([N+](=O)[O-])cn3CC(C)C)cn2CC(C)C)cn1CCC(=O)O [ADH-101]
- cell viability ([1]; ratio 1:1 (IAPP:ADH-101)): 100%
- cell viability ([1]; ratio 1:2 (IAPP:ADH-101)): 100%
- toxicity to the cells (RIN-m cells): not toxic
